Experimental data reported in US10173968B2, “Bishydrazone-based antifungal agents” (University of Kentucky Research Foundation, priority 2016, dated 2019).
Like-named read-outs stand apart in the source and are kept apart here.

Experiments:
[1] = tested on: all bacterial strains tested; test: Antibacterial MIC, summary over the panel; assay type: cell-based; conditions: read-out: antibacterial MIC values
Procedure: MIC values were determined against a variety of Gram-positive (strains A-D) and Gram-negative (E-J) bacterial and mycobacterial (K) strains using the double-dilution method, as previously published. Preliminary screening was performed using 500 μM of each compound.

[2] = tested on: MRSA; test: Antibacterial MIC, double-dilution method; assay type: cell-based; conditions: Staphylococcus aureus, strain C, Gram-positive, read-out: MIC
In short: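 Step one: single-point test of each compound at 500 μM. Step two: MIC determination across doubling dilutions.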

[3] = tested on: VRE (strain D); assay type: cell-based, enterococcus; conditions: up to 15 passages
Procedure: (§1) The bacteria were grown in MH broth at 37° C. for these experiments. […] The resulting cultures were diluted 1:1000 and grown until the culture reached ˜300,000 cfu/mL. That culture was then further diluted 1:1000 and used to determine the next round of MIC values.

[4] = tested on: C. albicans ATCC 10231; test: Intracellular ROS production, DCFH-DA fluorescence assay; assay type: cell-based, Candida albicans; conditions: at 1× and 2× MIC values, 1 h at 35° C.
Text: We used the 2′,7′-dichlorodihydrofluorescein diacetate (DCFH-DA) dye as a probe to measure the production of ROS in yeast cells upon treatment with our compounds. DCFH-DA can easily cross the cell membranes and be hydrolyzed by cellular esterases to the non-fluorescent 2′,7′-dichlorodihydrofluorescein (DCFH), which can further be oxidized to the highly fluorescent 2′,7′-dichlorofluorescein (DCF) by the intracellular ROS. Five mL of RPMI 1640 medium were inoculated using a single colony of C. albicans ATCC 10231 (strain A) in a Falcon tube and grown overnight at 35° C. at 200 rpm. The overnight culture was diluted by adding 200 μL of yeast cells to 800 μL of the same medium. […] H2O2 at 1 mM was also used as a positive control. Cells were centrifuged and washed twice with PBS buffer (pH 7.2). Cells were resuspended in the same buffer and incubated with DCFH-DA (20 μg/mL) for 30 min in the dark. Afterwards, cells were centrifuged and washed with PBS buffer to remove excess DCFH-DA. Glass slides with 10-15 μL of each mixture were prepared and observed in bright field and fluorescence modes (FITC filter set, excitation and emission wavelengths of 488 and 512 nm, respectively) using a Zeiss Axovert 200M fluorescence microscope (FIG. 3).

[5] = tested on: MRSA (strain C); assay type: cell-based, Staphylococcus aureus; conditions: up to 15 passages
Procedure: as §1

[6] = tested on: L. monocytogenes ATCC 19115 (strain B); assay type: cell-based, Listeria monocytogenes; conditions: up to 15 passages
Procedure: as §1

[7] = tested on: C. albicans ATCC 10231; assay type: cell-based, Candida albicans; conditions: repeated treatments with sub-MIC drug concentrations
[8] = biological target: hERG channel (Homo sapiens, UniProt Q12809); test: in vitro; conditions: pH 7.4
Sequence of hERG channel (Q12809 whole entry): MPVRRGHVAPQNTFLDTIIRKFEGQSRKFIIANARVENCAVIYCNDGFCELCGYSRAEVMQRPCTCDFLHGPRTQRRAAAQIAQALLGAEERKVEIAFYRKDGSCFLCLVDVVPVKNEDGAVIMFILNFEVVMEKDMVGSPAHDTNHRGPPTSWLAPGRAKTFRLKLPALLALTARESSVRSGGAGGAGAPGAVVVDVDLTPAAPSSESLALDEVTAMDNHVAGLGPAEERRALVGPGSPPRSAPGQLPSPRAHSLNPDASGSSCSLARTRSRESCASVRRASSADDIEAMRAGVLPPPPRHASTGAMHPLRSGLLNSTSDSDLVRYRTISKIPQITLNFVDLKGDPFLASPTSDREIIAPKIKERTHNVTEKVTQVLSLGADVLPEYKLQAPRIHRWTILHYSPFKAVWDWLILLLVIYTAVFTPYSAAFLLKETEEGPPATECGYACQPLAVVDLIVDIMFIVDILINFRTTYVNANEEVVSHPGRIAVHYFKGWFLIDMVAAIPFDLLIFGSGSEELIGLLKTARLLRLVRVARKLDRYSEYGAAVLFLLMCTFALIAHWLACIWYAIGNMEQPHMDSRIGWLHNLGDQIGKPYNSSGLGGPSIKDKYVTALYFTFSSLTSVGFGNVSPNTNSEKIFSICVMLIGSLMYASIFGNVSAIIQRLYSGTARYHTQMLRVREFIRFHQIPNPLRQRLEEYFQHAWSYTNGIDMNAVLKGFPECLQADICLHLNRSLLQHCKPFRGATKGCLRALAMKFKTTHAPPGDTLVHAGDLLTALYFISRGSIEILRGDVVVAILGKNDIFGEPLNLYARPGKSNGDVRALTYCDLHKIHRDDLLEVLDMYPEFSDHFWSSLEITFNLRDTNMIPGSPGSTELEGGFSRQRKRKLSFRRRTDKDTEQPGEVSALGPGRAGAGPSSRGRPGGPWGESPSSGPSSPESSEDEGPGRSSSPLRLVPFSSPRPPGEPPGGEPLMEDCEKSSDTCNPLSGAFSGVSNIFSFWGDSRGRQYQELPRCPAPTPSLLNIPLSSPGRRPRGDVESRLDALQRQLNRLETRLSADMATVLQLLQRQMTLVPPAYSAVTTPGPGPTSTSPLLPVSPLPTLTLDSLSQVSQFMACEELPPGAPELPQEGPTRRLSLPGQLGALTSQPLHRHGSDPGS
Procedure: Assays were conducted in duplicate, and three independent assays were performed for each compound that was evaluated. Cell membrane suspension (5 μg) was added to duplicate tubes containing assay buffer (50 mM Tris, 10 mM KCl, and 1 mM MgCl2, pH 7.4), 25 μL of a single concentration of analogue (a concentration range of 10 nM-100 μM was employed for each experiment), and 25 μL of [^3H]dofetilide (5 nM, final concentration) for an assay volume of 250 μL. Nonspecific binding was assessed in the presence of 1 mM amitriptyline. Binding occurred for 60 min at 25° C. and was terminated by rapid filtration through Whatman GF/B filters, which were pre-soaked in 0.5% PEI for 2 h. Filters were washed three times with ˜1 mL of ice-cold assay buffer. Radioactivity retained by the filters was determined by liquid scintillation counting by using a Tri-Carb 2100TR liquid scintillation analyzer (PerkinElmer Life and Analytical Sciences, Boston, Mass.).

[9] = tested on: P. aeruginosa ATCC 27853 (strain I); assay type: cell-based; conditions: up to 15 passages
Procedure: as §1

Row | Structure (SMILES) | MIC [1] [µg/mL] | MIC ([2]; converted from μM) [µg/mL] | MIC ([2]; range 0.5 to 500 μM) [µM] | melting point [°C] | development of resistance (passages after which resistance developed) [3] | intracellular ROS production [4] | development of resistance (passages after which resistance developed) [5] | development of resistance (passages after which resistance developed) [6] | development of drug resistance [7] | IC50 at 60 min [8] [nM] | development of resistance (passages after which resistance developed) [9]
1 | Cl.N=C(N)N/N=C/c1ccc(-c2ccc(/C=N/Nc3ccc(Cl)cc3)cc2)cc1 [Compound 7Ad, (E)-2-((4′-((E)-(2-(4-Chlorophenyl)hydrazono)methyl)-[1,1′-biphenyl]-4-yl)methylene)hydrazine-1-carboximidamide monohydrochloride] | 0.4 to 3.3 | 3.3 | 7.8 | > 380 | – | – | – | – | – | – | –
2 | Cl.N=C(N)N/N=C/c1ccc(-c2ccc(C=NNc3ccccc3Cl)cc2)cc1 (mixture of isomers) [Compound 7Aa, E)-2-((4′-((E and Z)-(2-(2-Chlorophenyl)hydrazono)methyl)-[1,1′-biphenyl]-4-yl)methylene)hydrazine-1-carboximidamide monohydrochloride] | – | 0.9 | – | – | did not develop resistance | significantly increased intracellular ROS production | twelve | did not develop resistance | unable to develop drug resistance | 1140 ± 267 | twelve
3 | Cl.N=C(N)N/N=C/c1ccc(-c2ccc(/C=N/Nc3ccc(F)cc3F)cc2)cc1 [Compound 7Af, (E)-2-((4′-((E)-(2-(2,4-Difluorophenyl)hydrazono)methyl)-[1,1′-biphenyl]-4-yl)methylene) hydrazine-1-carboximidamide, monohydrochloride] | 0.4 to 3.3 | 1.7 | 3.9 | > 380 | – | – | – | – | – | – | –
4 | Cl.Cl.N=C(N)N/N=C/c1ccc(-c2cccc(/C=N/NC(=N)N)c2)cc1 [Compound 3B, (2E,2′E)-2,2′-([1,1′-Biphenyl]-3,4′-diylbis(methanylylidene))bis(hydrazine-1-carboximidamide) dihydrochloride] | 0.4 to 3.3 | 1.5 | 3.9 | – | – | – | – | – | – | – | –
